Results: patent publication US20210196673A1 (priority 2018, published 2021)
In brackets after ≈: the same amount, converted by molar mass. Where two headings read alike, the source gives them in different places.

What was measured:
[1] = tested on: SARS-CoV-2; test: Primary CPE assay in Vero cells (antiviral)
[2] = tested on: influenza virus; conditions: cited from earlier work
[3] = tested on: SARS-CoV-2; test: Secondary VYR (virus yield reduction) assay in Caco-2 cells; type: cell-based
Experimental: The secondary VYR assay in Caco-2 cells: Near-confluent cell culture monolayers of Caco-2 cells were prepared in 96-well disposable microplates the day before testing. Cells were maintained in MEM supplemented with 10% FBS. The same medium was used for antiviral assays and FBS was reduced to 2%, supplemented with 50-μg/ml gentamicin. EGCG was dissolved in serum-free MEM in a series of 2×dilutions from 100 μg/ml to 0.78 μg/ml. The EGCG diliutions were mixed and incubated with SARS-CoV-2 at 200 CCID50 (50% cell culture infectious dose) in 0.1 ml volume for 1 h prior to adding to the cell culture for 1 h absorption. Following absorption, the unabsorbed SARS-CoV-2 along with medium/EGCG was removed and fresh MEM was added to the cell culture for viral yield detection in comparison to untreated infection control. Five microwells were used per dilution: three for infected cultures and two for uninfected toxicity cultures. Controls for the experiment consist of six microwells that were infected and not treated (virus controls) and six that were untreated and uninfected (cell controls) on every plate. Medium devoid of virus was placed in toxicity control wells and cell control wells. Plates were incubated at 37° C. with 5% CO2 for 72 hours. A sample of supernatant was taken from each infected well (three replicate wells were pooled) and tested immediately. To evaluate toxicity, the plates were stained with 0.011% neutral red dye for approximately two hours at 37° C. in a 5% CO2 incubator. The neutral red medium was removed by complete aspiration, and the cells were rinsed 1× with phosphate buffered solution (PBS) to remove residual dye. The PBS is completely removed, and the incorporated neutral red was eluted with 50% Sorensen's citrate buffer/50% ethanol for at least 30 minutes. As larger the number of viable cells present in the wells, when the neutral red dye penetrated into the living cells, the more intense the red color appeared. The dye content in each well was quantified using a spectrophotometer at 540 nm wavelength. The dye content in each set of wells was converted to a percentage of dye present in untreated control wells using a Microsoft Excel computer-based spreadsheet and normalized based on the virus control. The 50% cytotoxic (CC50, cell-inhibitory) concentrations were then calculated by regression analysis.
The VYR test indicates how much EGCG inhibits virus entry and replication. Virus yielded in the presence of EGCG was titrated and compared to virus titers from the untreated virus controls. Titration of the viral samples (collected as described in the paragraph above) was performed by endpoint dilution (Reed-Muench method). Serial 1/10 dilutions of virus were made and plated into 4 replicate wells containing fresh cell monolayers of Vero 76 cells. Plates were then incubated, and cells were scored for the presence or absence of virus after distinct CPE was observed. The TCID50 values were calculated using the Reed-Muench method. The 90% (one log10) effective concentration (EC90) was calculated by regression analysis by plotting the log10 of the inhibitor concentration versus log10 of virus produced at each concentration. The quotient of CC50 divided by EC90 gave the selectivity index (SI) value. Compounds showing SI values ≥10 are considered active.

[4] = tested on: Caco-2 cells
[5] = molecular target: transmembrane protease serine 2 (TMPRSS2) (Homo sapiens, UniProt O15393); conditions: in vitro study; cited from earlier work
[6] = molecular target: SARS-CoV 3C-like protease (3CLPro) (Severe acute respiratory syndrome coronavirus, UniProt P0C6X7); conditions: cited from earlier work
[7] = Stability of powder and liquid forms; type: physicochemical; conditions: for stability of powder form on storage: 5° C.
[8] = tested on: Vero cells; test: Primary CPE assay in Vero cells (cytotoxicity, CC50); type: cell-based
[9] = molecular target: SARS-CoV nucleocapsid (N) protein (Severe acute respiratory syndrome coronavirus, UniProt P59595); conditions: cited from earlier work
[10] = tested on: H1N1 virus
[11] = tested on: MDCK cells; test: Cell viability, MTT assay; type: cell-based; conditions: 1 hour incubation
Experimental: Cell Viability: This experiment tested if EC16 formulations were associated with cytotoxicity in MDCK cells. MDCK cells were cultured in a 96 well plate until confluent. MEM serum free medium, MEM medium with 10% carrier and 20% carrier (carrier controls), or MEM medium containing 0.1% EC16 and 10% or 20% carrier was added to the wells followed by a 1 hour incubation at 35° C. with 5% CO2. The medium was then changed to 200 μl fresh MEM serum free medium with 0.2 μg/ml trypsin in each well and incubated overnight under the same condition. The plate was removed from the cell culture incubator and an MTT assay was performed according to a method described previously (Yamamoto, T., et al., Anticancer Research, 24:3065-3073 (2004)).

[12] = tested on: H1N1 virus; remark: listed apart in the source
[13] = tested on: H1N1 virus; type: cell-based, influenza A virus
[14] = tested on: H1N1 virus; type: cell-based, influenza A virus; remark: listed apart in the source
[15] = tested on: H1N1 virus; type: cell-based, influenza A virus; remark: listed apart in the source
[16] = EGCG 50 μg/ml (0.005%), Caco-2 cells
[17] = EGCG 100 μg/ml (0.01%), Caco-2 cells

SARS-CoV nucleocapsid (N) protein, sequence (P59595 whole entry, looked up): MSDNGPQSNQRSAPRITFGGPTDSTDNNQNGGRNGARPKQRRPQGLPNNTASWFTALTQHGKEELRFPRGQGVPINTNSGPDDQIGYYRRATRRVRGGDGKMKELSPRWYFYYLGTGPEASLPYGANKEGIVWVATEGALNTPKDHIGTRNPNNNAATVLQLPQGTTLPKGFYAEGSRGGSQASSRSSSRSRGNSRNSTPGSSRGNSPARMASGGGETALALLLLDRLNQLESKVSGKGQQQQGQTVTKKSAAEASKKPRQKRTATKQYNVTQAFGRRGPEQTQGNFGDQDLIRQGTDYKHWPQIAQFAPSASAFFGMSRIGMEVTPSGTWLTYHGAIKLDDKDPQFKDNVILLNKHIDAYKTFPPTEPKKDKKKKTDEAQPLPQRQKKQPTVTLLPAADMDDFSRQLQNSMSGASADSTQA
transmembrane protease serine 2 (TMPRSS2), sequence (O15393 whole entry): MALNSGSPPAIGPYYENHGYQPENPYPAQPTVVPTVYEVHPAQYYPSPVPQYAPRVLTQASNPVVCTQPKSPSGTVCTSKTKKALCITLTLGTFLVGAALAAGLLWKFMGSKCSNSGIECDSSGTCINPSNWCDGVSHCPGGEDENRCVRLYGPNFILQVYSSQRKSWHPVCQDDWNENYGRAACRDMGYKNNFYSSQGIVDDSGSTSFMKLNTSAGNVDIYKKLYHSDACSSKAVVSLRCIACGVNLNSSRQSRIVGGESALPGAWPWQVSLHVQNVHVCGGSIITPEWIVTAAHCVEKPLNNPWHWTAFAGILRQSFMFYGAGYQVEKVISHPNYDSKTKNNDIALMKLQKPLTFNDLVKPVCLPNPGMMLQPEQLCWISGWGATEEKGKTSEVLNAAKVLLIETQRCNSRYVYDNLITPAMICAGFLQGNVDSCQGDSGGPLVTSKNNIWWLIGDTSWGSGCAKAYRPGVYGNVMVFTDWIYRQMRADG

O=C(O[C@@H]1Cc2c(O)cc(O)cc2O[C@@H]1c1cc(O)c(O)c(O)c1)c1cc(O)c(O)c(O)c1 [EGCG, (−)-epigallocatechin-3-gallate]
EC50, inhibition of CPE (NR) ([1]; neutral red (NR) readout): 0.27 µg/mL
EC50, inhibition of CPE (VIS) ([1]; visual (VIS) readout): 0.23 µg/mL
effect of direct contact with influenza virus ([2]; direct contact of EGCG with virus, cell culture): inactivation of viral infectivity
anti-viral activity after pre-incubation of cells ([2]; pre-incubation of cells with EGCG, no contact with the virus): does not show anti-viral activity
concentration that inhibited 90% of viral yield (EC90) ([3]; Caco-2 cells, value of b285): 28 µg/mL
reduction in virus titer [3, 16]: 1.8 log 10
reduction of viral yield [3, 16]: 98.41%
reduction in virus titer [3, 17]: > 3.6 log 10
reduction of viral yield [3, 17]: > 99.975%
antiviral activity ([3]; EGCG at or lower than 25 μg/ml (0.0025%), Caco-2 cells): the activity was not detected
Viral titer of EGCG treated TCID50 values ([3]; concentration 0.78 μg/ml): 5.3 lon10
Viral titer of EGCG treated TCID50 values ([3]; concentration 1.56 μg/ml): 5.0 lon10
Viral titer of EGCG treated TCID50 values ([3]; concentration 3.13 μg/ml): 5.0 lon10
Viral titer of EGCG treated TCID50 values ([3]; concentration 6.25 μg/ml): 5.5 lon10
Viral titer of EGCG treated TCID50 values ([3]; concentration 12.5 μg/ml): 5.3 lon10
Viral titer of EGCG treated TCID50 values ([3]; concentration 25 μg/ml): 5.0 lon10
Viral titer of EGCG treated TCID50 values ([3]; concentration 50 μg/ml): 3.5 lon10
Viral titer of EGCG treated TCID50 values ([3]; concentration 100 μg/ml): <1.7 lon10
SIgo (CC50/EC90) ([3]; selectivity index): > 23
CC50 (cytotoxicity) ([4]; Caco-2 cells, neutral red, value of b285): > 100 µg/mL
CC50 ([4]; Neutral Red (Toxicity) assay, value of b289): > 100 µg/mL
inhibition of TMPRSS2 [5]: inhibited TMPRSS2
inhibition of 3C^pro activity [6]: 80%
inhibition of SARS-CoV 3C-like protease [6]: significantly inhibited
stability in aqueous solution ([7]; aqueous solution): not stable
stability in dry powder form [7]: stable
stability of powder form on storage [7]: stable at 5 °C for two years
CC50 (NR) ([8]; neutral red (NR) readout): 2.3 µg/mL (≈ 5.02 µM)
CC50 (VIS) ([8]; visual (VIS) readout): 3.2 µg/mL (≈ 6.98 µM)

O=C(O[C@@H]1Cc2c(O)cc(O)cc2O[C@H]1c1cc(O)c(O)c(O)c1)c1cc(O)c(O)c(O)c1 [GCG, gallocatechin gallate]
inhibitory effect against SARS-CoV nucleocapsid (N) protein [9]: remarkable inhibitory effect
inhibition of SARS-CoV 3C-like protease [6]: significantly inhibited

(−)-epigallocatechin-3-gallate-palmitate [EC16]
viral titer (viability), % of control ([10]; 0.01% EC16 in 10% carrier, 1 hour pre-treatment, n=4): 100%
infectivity, % of control ([10]; 0.01% EC16 in 20% carrier, 1 hour pre-treatment): 2.3%±0.9
infectivity, % of control ([10]; 0.1% EC16 in 10% carrier, 1 hour pre-treatment): 10.5%±3.6
reduction in titer ([10]; 0.1% EC16 in 20% carrier): 42 fold
infectivity, % of control ([10]; 0.1% EC16 in 20% carrier, 1 hour pre-treatment, n=7): 2.4%±1.6
viral titer in comparison to control ([10]; EC16 0 to 0.1% in 2% DMSO instead of carrier): did not result in a statistically significant difference
cell viability (MTT) versus MEM control ([11]; 0.1% EC16 in 10% carrier): not statistically different from the MEM control
cell viability (MTT) versus MEM control ([11]; 0.1% EC16 in 20% carrier): not statistically different from the MEM control
remaining viability (infectivity), mean ([12]; 0.01% EC16 in 10% carrier, 10 minutes): 48.4%±46.4
infectivity, mean % of control ([12]; 0.01% EC16 in 20% carrier, 30 minutes): 7.6%±7.2
infectivity, mean % of control ([12]; 0.1% EC16 in 10% carrier, 10 minutes): 9.5%±1.4
infectivity, mean % of control ([12]; 0.1% EC16 in 20% carrier, 10 minutes): 12.1%±5.8
infectivity, mean % of control ([12]; 0.1% EC16 in 20% carrier, 30 minutes): 0.9%±0.7
viral TCID50, % of control [13]: 15.4%±15.2
H1N1 infectivity, % of control ([14]; 0.01% EC16 in 10% carrier, 1 minute contact, n=3): 20.5%±17.1
H1N1 infectivity, % of control ([14]; 0.01% EC16 in 20% carrier, separate experiments): 7.3%±9.2
H1N1 infectivity, % of control ([14]; 0.1% EC16 in 10% carrier, 1 minute contact, first three replicates): 6.1%±3.0
H1N1 infectivity, % of control ([14]; 0.1% EC16 in 10% carrier, additional three replicate experiments): 3.8%±1.5
H1N1 infectivity, % of control ([14]; 0.1% EC16 in 10% carrier, overall mean (n=6)): 5.0%±2.4
H1N1 infectivity, % of control ([14]; 0.1% EC16 in 20% carrier, 1 minute contact): 2.4%±1.1
cells protected from H1N1 infection ([15]; 0.05% EC16, washed and 1 hour without EC16): 90%
block of H1N1 infection ([15]; 0.1% EC16, 2 hours after first application, washed and 1 hour without EC16): almost completely blocked
stability in dry powder form [7]: stable
stability in proper liquid formulations ([7]; liquid formulations): stable
stability of powder form on storage [7]: stable at 5 °C for two years
